These results are taken from patent US10525041B2, “Fluoroalkyl-substituted aryltriazole derivatives and uses thereof” (BAYER PHARMA AKTIENGESELLSCHAFT, priority 2016, dated 2020).

In one assay the target is T1, human V1a receptor (Homo sapiens, UniProt P37288).
T1 construct: expressed in transfected cells; host or cells: CHO K1 (ATCC), also stably transfected with a modified aequorin
Nature of the assay: Cellular in vitro assay for vasopressin receptor activity, V1a cell line (aequorin luminescence). The assay is classed as cell-based. As to conditions: for IC50: CHO cell line transfected with human V1a receptor, agonist [Arg8]-vasopressin at EC50 concentration, read-out: IC50hV1a; for ratio IC50 hV2/hV1a: ratio of the IC50 on human V2 to the IC50 on human V1a. The method in brief:
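CHO K1 cells stably expressing human V1a receptor with aequorin photoprotein, loaded overnight with coelenterazine. Compounds preincubated 10 min at various concentrations, then challenged with [Arg^8]-vasopressin at EC50 concentration. Calcium-driven luminescence read immediately; IC50 values derived.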

The target in another assay is T2, human V2 receptor (Homo sapiens, UniProt P30518).
T2 construct: expressed in transfected cells; host or cells: CHO K1 (ATCC) line expressing firefly luciferase under a CRE-responsive promoter
T2 sequence (P30518 whole entry): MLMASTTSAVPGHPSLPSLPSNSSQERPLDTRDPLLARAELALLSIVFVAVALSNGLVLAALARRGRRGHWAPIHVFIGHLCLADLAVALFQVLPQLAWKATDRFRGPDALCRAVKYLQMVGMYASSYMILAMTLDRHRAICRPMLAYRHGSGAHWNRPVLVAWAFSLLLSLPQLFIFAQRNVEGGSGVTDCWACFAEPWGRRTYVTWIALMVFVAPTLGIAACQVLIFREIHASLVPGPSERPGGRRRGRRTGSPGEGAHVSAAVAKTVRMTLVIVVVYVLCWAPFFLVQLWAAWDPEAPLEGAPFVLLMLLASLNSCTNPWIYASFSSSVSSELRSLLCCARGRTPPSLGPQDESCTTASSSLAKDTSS
Nature of the assay: Cellular in vitro assay for vasopressin receptor activity, V2 cell line (CRE-luciferase). Type of assay: cell-based. As to conditions: CHO cell line transfected with human V2 receptor; agonist [Arg8]-vasopressin at EC50 concentration, 3 hours; read-out: IC50hV2.

T1 sequence (P37288 whole entry): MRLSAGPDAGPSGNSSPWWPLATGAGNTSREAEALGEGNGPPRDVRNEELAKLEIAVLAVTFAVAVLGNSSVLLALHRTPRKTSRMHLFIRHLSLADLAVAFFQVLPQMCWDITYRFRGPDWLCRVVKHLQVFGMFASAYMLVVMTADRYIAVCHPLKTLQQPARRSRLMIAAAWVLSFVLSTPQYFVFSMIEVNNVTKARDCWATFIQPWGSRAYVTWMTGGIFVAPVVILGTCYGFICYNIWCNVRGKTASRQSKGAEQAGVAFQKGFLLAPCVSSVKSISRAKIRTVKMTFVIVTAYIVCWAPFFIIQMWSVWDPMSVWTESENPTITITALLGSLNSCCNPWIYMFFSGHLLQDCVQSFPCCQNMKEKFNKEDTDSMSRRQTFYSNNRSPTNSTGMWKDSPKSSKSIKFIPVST

Turning to `CC(F)c1nc(Cn2nc(-c3ccc(Cl)cc3)n(C[C@H](O)C(F)(F)F)c2=O)nn1-c1cnccc1C(F)(F)F` (stereo partly drawn) [Example 7, 5-(4-Chlorophenyl)-2-({5-[1-fluoroethyl]-1-[4-(trifluoromethyl)pyridin-3-yl]-1H-1,2,4-triazol-3-yl}methyl)-4-[(2S)-3,3,3-trifluoro-2-hydroxypropyl]-2,4-dihydro-3H-1,2,4-triazol-3-one], on human V1a receptor, the IC50 is 1.13 nM and the “ratio IC50 hV2/hV1a” value turned out to be 11.1. Further, on human V2 receptor, the IC50 was determined as 12.5 nM.
For `CC(F)(F)c1nc(Cn2nc(-c3ccc(Cl)cc3)n(C[C@H](O)C(F)(F)F)c2=O)nn1-c1ccccc1[N+](=O)[O-]` [Example 65, 5-(4-Chlorophenyl)-2-{[5-(1,1-difluoroethyl)-1-(2-nitrophenyl)-1H-1,2,4-triazol-3-yl]methyl}-4-[(2S)-3,3,3-trifluoro-2-hydroxypropyl]-2,4-dihydro-3H-1,2,4-triazol-3-one] the same measures were 3.05 nM, 3.7 and 11.4 nM.
In the same order, the values of `CCc1ccccc1-n1nc(Cn2nc(-c3ccc(Cl)cc3)n(C[C@H](O)C(F)(F)F)c2=O)nc1C(C)(F)F` [Example 62, 5-(4-Chlorophenyl)-2-{[5-(1,1-difluoroethyl)-1-(2-ethylphenyl)-1H-1,2,4-triazol-3-yl]methyl}-4-[(2S)-3,3,3-trifluoro-2-hydroxypropyl]-2,4-dihydro-3H-1,2,4-triazol-3-one] are 2.2 nM, 1.0 and 2.25 nM.
In the same order, the values of `CC(F)c1nc(Cn2nc(-c3ccc(Cl)cc3)n(C[C@H](O)C(F)(F)F)c2=O)nn1-c1ccccc1OC(F)F` (single isomer, unassigned) [Example 33] are 2.15 nM, 0.8 and 1.8 nM.
Take `CC(F)c1nc(Cn2nc(-c3ccc(Cl)cc3)n(C[C@H](O)C(F)(F)F)c2=O)nn1-c1ccccc1C#N` (single isomer, unassigned) [Example 40]: the IC50 turned out to be 28.5 nM on human V1a receptor and 420 nM at human V2 receptor. In addition, the “ratio IC50 hV2/hV1a” value at human V1a receptor came to 14.7.
For `O=c1n(Cc2nc(C(F)(F)F)n(-c3ccccc3Cl)n2)nc(-c2ccc(Cl)cc2)n1C[C@H](O)C(F)(F)F` [Example 79, 5-(4-Chlorophenyl)-2-{[1-(2-chlorophenyl)-5-(trifluoromethyl)-1H-1,2,4-triazol-3-yl]methyl}-4-[(2S)-3,3,3-trifluoro-2-hydroxypropyl]-2,4-dihydro-3H-1,2,4-triazol-3-one] the same measures were 0.78 nM, 2.58 nM and 3.3.
In the same order, the values of `CC(F)(F)c1nc(Cn2nc(-c3ccc(Cl)cc3)n(C[C@H](O)C(F)(F)F)c2=O)nn1-c1cccc(Cl)c1` [Example 55, 5-(4-Chlorophenyl)-2-{[1-(3-chlorophenyl)-5-(1,1-difluoroethyl)-1H-1,2,4-triazol-3-yl]methyl}-4-[(2S)-3,3,3-trifluoro-2-hydroxypropyl]-2,4-dihydro-3H-1,2,4-triazol-3-one] are 60 nM, 5.23 nM and 0.1.
Take `CC(F)(F)c1nc(Cn2nc(-c3ccc(Cl)cc3)n(C[C@H](O)C(F)(F)F)c2=O)nn1-c1ncccc1C(F)(F)F` [Example 59, 5-(4-Chlorophenyl)-2-({5-(1,1-difluoroethyl)-1-[3-(trifluoromethyl)pyridin-2-yl]-1H-1,2,4-triazol-3-yl}methyl)-4-[(2S)-3,3,3-trifluoro-2-hydroxypropyl]-2,4-dihydro-3H-1,2,4-triazol-3-one]: the IC50 came to 4.7 nM at human V1a receptor and 26.7 nM at human V2 receptor. In addition, the “ratio IC50 hV2/hV1a” value at human V1a receptor is 5.7.
As for `CC(F)(F)c1nc(Cn2nc(-c3ccc(Cl)cc3)n(C[C@H](O)C(F)(F)F)c2=O)nn1-c1ccccc1S(N)(=O)=O` [Example 66, 2-[3-({3-(4-Chlorophenyl)-5-oxo-4-[(2S)-3,3,3-trifluoro-2-hydroxypropyl]-4,5-dihydro-1H-1,2,4-triazol-1-yl}methyl)-5-(1,1-difluoroethyl)-1H-1,2,4-triazol-1-yl]benzenesulfonamide], at human V1a receptor, the IC50 turned out to be 58 nM and the “ratio IC50 hV2/hV1a” value is on record as 5.9. Moreover, the IC50 on human V2 receptor stood at 340 nM.
In the same order, the values of `CC(F)(F)c1nc(Cn2nc(-c3ccc(Cl)cc3)n(C[C@H](O)C(F)(F)F)c2=O)nn1-c1c(F)cccc1F` [Example 70, 5-(4-Chlorophenyl)-2-{[5-(1,1-difluoroethyl)-1-(2,6-difluorophenyl)-1H-1,2,4-triazol-3-yl]methyl}-4-[(2S)-3,3,3-trifluoro-2-hydroxypropyl]-2,4-dihydro-3H-1,2,4-triazol-3-one] are 1.75 nM, 1.3 and 2.27 nM.
In the same order, the values of `CC(F)c1nc(Cn2nc(-c3ccc(Cl)cc3)n(C[C@H](O)C(F)(F)F)c2=O)nn1-c1cccc(Cl)c1` (single isomer, unassigned) [Example 17] are 9.25 nM, 0.0 and 0.25 nM.
For `CC(F)c1nc(Cn2nc(-c3ccc(Cl)cc3)n(C[C@H](O)C(F)(F)F)c2=O)nn1-c1ccccc1C(F)(F)F` (single isomer, unassigned) [Example 24] the same measures were 1.1 nM, 4.2 and 4.65 nM.
For `CC(F)c1nc(Cn2nc(-c3ccc(Cl)cc3)n(C[C@H](O)C(F)(F)F)c2=O)nn1-c1cnccc1Cl` (single isomer, unassigned) [Example 6], the IC50 worked out at 0.48 nM at human V1a receptor and 2.37 nM at human V2 receptor. Moreover, the “ratio IC50 hV2/hV1a” value at human V1a receptor was 5.0.
For `CC(F)c1nc(Cn2nc(-c3ccc(Cl)cc3)n(C[C@H](O)C(F)(F)F)c2=O)nn1-c1ncccc1C(F)(F)F` (single isomer, unassigned) [Example 11] the same measures were 13.5 nM, 73.8 nM and 5.5.
For `CC(F)c1nc(Cn2nc(-c3ccc(Cl)cc3)n(C[C@H](O)C(F)(F)F)c2=O)nn1-c1ccccc1Cl` (single isomer, unassigned) [Example 3] the same measures were 0.9 nM, 0.93 nM and 1.0.
`O=c1n(Cc2nc(C(F)F)n(-c3ccccc3Cl)n2)nc(-c2ccc(Cl)cc2)n1C[C@H](O)C(F)(F)F` [Example 51, 5-(4-Chlorophenyl)-2-{[1-(2-chlorophenyl)-5-(difluoromethyl)-1H-1,2,4-triazol-3-yl]methyl}-4-[(2S)-3,3,3-trifluoro-2-hydroxypropyl]-2,4-dihydro-3H-1,2,4-triazol-3-one]: the IC50 turned out to be 1.47 nM at human V1a receptor and 2.2 nM on human V2 receptor. At human V1a receptor, the “ratio IC50 hV2/hV1a” value turned out to be 1.5.
For the compound `CC(F)c1nc(Cn2nc(-c3ccc(Cl)cc3)n(C[C@H](O)C(F)(F)F)c2=O)nn1-c1c(F)cccc1Cl` (mixture of isomers) [Example 44, 2-({1-(2-chloro-6-fluorophenyl)-5-[1-fluoroethyl]-1H-1,2,4-triazol-3-yl}methyl)-5-(4-Chlorophenyl)-4-[(2S)-3,3,3-trifluoro-2-hydroxypropyl]-2,4-dihydro-3H-1,2,4-triazol-3-one], at human V1a receptor, the IC50 was determined as 1.04 nM and the “ratio IC50 hV2/hV1a” value is given as 2.8. For the same compound, at human V2 receptor, the IC50 turned out to be 2.93 nM.
For `CCc1ccccc1-n1nc(Cn2nc(-c3ccc(Cl)cc3)n(C[C@H](O)C(F)(F)F)c2=O)nc1C(C)F` (mixture of isomers) [Example 28, 5-(4-Chlorophenyl)-2-({1-(2-ethylphenyl)-5-[1-fluoroethyl]-1H-1,2,4-triazol-3-yl}methyl)-4-[(2S)-3,3,3-trifluoro-2-hydroxypropyl]-2,4-dihydro-3H-1,2,4-triazol-3-one] the same measures were 1.85 nM, 0.4 and 0.76 nM.
In the same order, the values of `CCc1ccccc1-n1nc(Cn2nc(-c3ccc(Cl)cc3)n(C[C@H](O)C(F)(F)F)c2=O)nc1C(C)F` (single isomer, unassigned) [Example 29] are 0.91 nM, 0.4 and 0.37 nM.
In the same order, the values of `CC(F)c1nc(Cn2nc(-c3ccc(Cl)cc3)n(C[C@H](O)C(F)(F)F)c2=O)nn1-c1ncccc1C(F)(F)F` (single isomer, unassigned) [Example 12] are 3.8 nM, 5.9 and 22.5 nM.
As to `CC(F)c1nc(Cn2nc(-c3ccc(Cl)cc3)n(C[C@H](O)C(F)(F)F)c2=O)nn1-c1ccccc1OC(F)F` (mixture of isomers) [Example 31, 5-(4-Chlorophenyl)-2-({1-[2-(difluoromethoxy)phenyl]-5-[1-fluoroethyl]-1H-1,2,4-triazol-3-yl}methyl)-4-[(2S)-3,3,3-trifluoro-2-hydroxypropyl]-2,4-dihydro-3H-1,2,4-triazol-3-one], on human V1a receptor, the IC50 was 1.75 nM and the “ratio IC50 hV2/hV1a” value came to 2.6. Besides, the IC50 at human V2 receptor worked out at 4.58 nM.
For `CC(F)c1nc(Cn2nc(-c3ccc(Cl)cc3)n(C[C@H](O)C(F)(F)F)c2=O)nn1-c1ccccc1OC(F)(F)F` (single isomer, unassigned) [Example 26] the same measures were 3 nM, 5.8 and 17.5 nM.
